# Experimental data: ChEMBL document CHEMBL5725762, “Tetracyclic pyridone compounds as antivirals” (2018)
# Experiment: HBSAg ELISA assay: HepG2-Clone42 cells were seeded in into black clear-bottom 96-well plates at a concentration of 6.0×10^4 cells/well. 24 hours post-seeding, the cells were treated with 200 μl/well of media containing five-fold serial dilutions of compounds in DMSO. DMSO alone was used as the no drug control. The final DMSO concentration in all wells was 0.5%. The HBsAg ELISA kit (Alpha Diagnostic International, San Antonio, Tex., USE, Catalog #4110) was used to determine the level (semi-quantitative) of secreted HBV sAg.
row,SMILES,EC50 [nM]
1,COCCCOc1cc2c(cc1OC)-c1c(F)c(=O)c(C(=O)O)cn1C1[C@@H]2OCC1(C)C (stereo partly drawn),0.8
2,COCCCOc1cc2c(cc1Cl)-c1cc(=O)c(C(=O)O)cn1[C@H]1[C@@H]2CCC1(C)C,0.1
3,COCCCOc1cc2c(cc1OC)-c1cc(=O)c(C(=O)O)cn1C1[C@@H]2COC1(C)C (stereo partly drawn),1
